Measured values reported in patent US8512752B2, “Hyaluronic acid derivatives obtained via “click chemistry” crosslinking” (Fidia Farmaceutici S.p.A., priority 2006, dated 2013).
Where a name gives a salt, the structure may show the parent alone.

Experiments:
Assay type in all cases: physicochemical
[1] = release of benzydamine hydrochloride from hydrogel of crosslinked hyaluronic acid obtained with catalytic CuSO4.5H2O; settings: hydrogel of HA (product 1 + product 2) crosslinked with catalytic CuSO4.5H2O and ascorbic acid, Example 11; release in 100 ml distilled water
Experimental: 50 mg of product 1 and 50 mg of product 2 are dissolved in 1.3 ml of distilled water and separately 13.8 mg of benzydamine hydrochloride are dissolved in 0.5 ml of distilled water. The solution of hyaluronic acid is mixed with that of benzydamine hydrochloride; 0.1 ml of an aqueous solution obtained with 50 mg of CuSO4.5H2O in 1 ml of H2O and 0.1 ml of an aqueous solution of 20 mg of ascorbic acid are then added.
The mixture is stirred vortically for a few minutes. The rapidly formed gel incorporates the benzydamine hydrochloride inside.
(§1) The quantity of benzydamine hydrochloride released from the hydrogel, in 100 ml of distilled water, is determined by means of U.V. spectrophotometric measurements at λ=308 nm by interpolation of the absorbance values on a calibration line constructed using solutions of the drug at known concentration.
(§2) The release measurements of the drug are performed on the hydrogel described above.

[2] = release of benzydamine hydrochloride from hydrogel of hyaluronic acid with 1,6-Heptadiyne; settings: hydrogel of HA (product 1) with 1,6-heptadiyne, catalytic CuSO4.5H2O and ascorbic acid, Example 13; release in 100 ml distilled water
Experimental: (§3) 100 mg of product 1 are dissolved in 1.1 ml of distilled water; a solution of 140 μl of 1,6-Heptadiyne in 9.86 ml of DMSO are prepared separately, whereas 13.8 mg of benzydamine hydrochloride are dissolved in 0.5 ml of distilled water. The solution of hyaluronic acid is mixed with that of benzydamine and with 0.2 ml of that of 1,6-Heptadiyne; 0.1 ml of an aqueous solution obtained with 50 mg of CuSO4.5H2O in 1 ml of H2O and 0.1 mL of an aqueous solution of 20 mg of ascorbic acid are then added. The mixture is stirred vortically for a few minutes. The rapidly formed gel incorporates the benzydamine hydrochloride inside.
as §1

[3] = release of benzydamine hydrochloride from hydrogel of crosslinked hyaluronic acid obtained with catalytic CuCl; settings: hydrogel of HA (product 1 + product 2) crosslinked with catalytic CuCl, Example 11; release in 100 ml phosphate buffer solution pH=7.4
Experimental: 69 mg of benzydamine hydrochloride are dissolved in 2 ml of water and 50 mg of product 1 and 50 mg of product 2 synthesized as described above, are then added.
830 μL of a 1% w/V solution of CuCl are subsequently added to the solution and the gel is formed after a few minutes directly incorporating the drug.
as §1, with “ml of a phosphate buffer solution pH=7.4, is determined” for “ml of distilled water, is determined”, “drug at a known concentration.” for “drug at known concentration.”
as §2

[4] = release of doxorubicin hydrochloride from hydrogel of hyaluronic acid with 1,4-diethynylbenzene; settings: hydrogel of HA (product 1) with 1,4-diethynylbenzene, catalytic CuSO4.5H2O and ascorbic acid, Example 13; release in 100 ml distilled water
Experimental: 100 mg of product 1 are dissolved in 1.1 ml of distilled water and 3 mg of 1,4-Diethynylbenzene are dissolved separately in 0.2 ml of DMSO, whereas 23.2 mg of doxorubicin hydrochloride are dissolved in 0.5 ml of distilled water. The three solutions are mixed, 0.1 ml of an aqueous solution obtained with 50 mg of CuSO4.5H2O in 1 ml of H2O and 0.1 ml of an aqueous solution of 20 mg of ascorbic acid are then added. The mixture is stirred vortically for a few minutes. The rapidly formed gel (see FIG. 26) incorporates the doxorubicin hydrochloride inside.
as §1, with “doxorubicin” for “benzydamine”, “λ=486” for “λ=308”
The release measurements of the drug are effected on the hydrogel described above.

[5] = release of doxorubicin hydrochloride from hydrogel of hyaluronic acid with 1,6-heptadiyne; settings: hydrogel of HA (product 1) with 1,6-heptadiyne, catalytic CuSO4.5H2O and ascorbic acid, Example 13; release in 100 ml distilled water
Experimental: as §3, with “23.2” for “13.8”, “doxorubicin” for “benzydamine”, “ml” for “mL”, “gel (see FIG. 28)” for “gel”
as §1, with “doxorubicin” for “benzydamine”, “λ=486” for “λ=308”

[6] = release of doxorubicin hydrochloride from hydrogel of hyaluronic acid with 1,8-Nonadiyne; settings: hydrogel of HA (product 1) with 1,8-Nonadiyne, catalytic CuSO4.5H2O and ascorbic acid, Example 13; release in 100 ml distilled water
Experimental: 100 mg of product 1 are dissolved in 1.1 ml of distilled water; a solution of 200 μl of 1,8-Nonadiyne in 11.23 ml of DMSO are prepared separately, whereas 23.2 mg of doxorubicin hydrochloride are dissolved in 0.5 ml of distilled water. The solution of hyaluronic acid is mixed with that of doxorubicin and with 0.2 ml of that of 1,8-Nonadiyne; 0.1 ml of an aqueous solution obtained with 50 mg of CuSO4.5H2O in 1 ml of H2O and 0.1 ml of an aqueous solution of 20 mg of ascorbic acid are then added. The mixture is stirred vortically for a few minutes. The rapidly formed gel (see FIG. 31) incorporates the doxorubicin hydrochloride inside.
as §1, with “doxorubicin” for “benzydamine”, “λ=486” for “λ=308”
as §2

[7] = release of doxorubicin hydrochloride from hydrogel of crosslinked hyaluronic acid obtained with catalytic CuCl; settings: hydrogel of HA (product 1 + product 2) crosslinked with catalytic CuCl, Example 11; release in 100 ml distilled water
Experimental: 29 mg of doxorubicin hydrochloride are dissolved in 2 ml of water and 50 mg of product 1 and 50 mg of product 2 synthesized as described above, are then added. 830 μL of a 1% w/V solution of CuCl are subsequently added to the solution and the gel is formed after a few minutes directly incorporating the drug present in solution.
The quantity of doxorubicin hydrochloride released from the hydrogel in 100 ml of distilled water, is determined by U.V. spectrophotometric measurements at λ=486 nm by interpolation of the absorbance values on a calibration line constructed using solutions of the drug at known concentration.
as §2

maximum quantity released, of the quantity of drug initially incorporated in the gel [1] | period over which the maximum quantity of drug is released [1] | maximum quantity released, of the quantity of drug initially incorporated in the gel [2] | period over which the maximum quantity of drug is released [2] | maximum quantity released, of the quantity of drug initially incorporated in the gel [3] | period over which the maximum quantity of drug is released [3] | maximum quantity released, of the quantity of drug initially incorporated in the gel [4] | period over which the maximum quantity of drug is released [4] | maximum quantity released, of the quantity of drug initially incorporated in the gel [5] | period over which the maximum quantity of drug is released [5] | maximum quantity released, of the quantity of drug initially incorporated in the gel [6] | period over which the maximum quantity of drug is released [6] | maximum quantity released, of the quantity of drug initially incorporated in the gel [7] | period over which the maximum quantity of drug is released [7] | Compound
70% | about 5 h | 80% | about 6 h | 88% | about 3.5 h |  |  |  |  |  |  |  |  | CN(C)CCCOc1nn(Cc2ccccc2)c2ccccc12 [benzydamine hydrochloride]
 |  |  |  |  |  | 50% | about 50 h | 23% | about 250 h | 14% | about 100 h | 25% | about 160 h | COc1cccc2c1C(=O)c1c(O)c3c(c(O)c1C2=O)C[C@@](O)(C(=O)CO)C[C@@H]3O[C@H]1C[C@H](N)[C@H](O)[C@H](C)O1 [doxorubicin hydrochloride]
